# Data taken from ChEMBL document CHEMBL1124722, “Synthesis and anticonvulsant activity of 2-benzylglutarimides” (J Med Chem, 1990).
# Active and inactive are the calls of the source. No cut-off for these calls is given here.
# Experiments:
# [1] = system: Mus musculus; assay: Anticonvulsant activity against subcutaneous administered Metrazol induced seizures (scMET) after 0.5 hr at 300 mg/kg; Active; type: functional, organism-based; design: dose 300 mg/kg
# [2] = system: Mus musculus; assay: Anticonvulsant activity against maximal electroshock induced seizures (MES) after 0.5 h; Not active up to 300 mg/kg; type: functional, organism-based; design: dose 300 mg/kg
# [3] = system: Mus musculus; assay: Anticonvulsant activity against maximal electroshock induced seizures (MES) after 4 hr at 300 mg/kg; Active; type: functional, organism-based; design: dose 300 mg/kg
# [4] = system: Mus musculus; assay: (§1) The Neurologic toxicity by measuring rotarod test after 4 hr; Not active up to 300 mg/kg; type: organism-based; design: dose 300 mg/kg; details: in vivo
# [5] = system: Mus musculus; assay: (§2) The Neurologic toxicity by measuring rotarod test after 0.5 h; Not active up to 300 mg/kg; type: organism-based; design: dose 300 mg/kg; details: in vivo
# [6] = system: Mus musculus; assay: Anticonvulsant activity against subcutaneous administered Metrazol induced seizures (scMET) after 4 hr at 300 mg/kg; Active; type: functional, organism-based; design: dose 300 mg/kg
# [7] = system: Mus musculus; assay: Anticonvulsant activity against subcutaneous administered Metrazol induced seizures (scMET) after 0.5 hr; Not active up to 300 mg/kg; type: functional, organism-based; design: dose 300 mg/kg
# [8] = system: Mus musculus; assay: Anticonvulsant activity against maximal electroshock induced seizures after 4 hr; Not active up to 300 mg/kg.; type: functional, organism-based; design: dose 300 mg/kg
# [9] = system: Mus musculus; assay: The Neurologic toxicity by measuring rotarod test after 0.5 hr at 300 mg/kg; Active; type: organism-based; design: dose 300 mg/kg; details: in vivo
# [10] = system: Mus musculus; assay: The Neurologic toxicity by measuring rotarod test after 4 hr at 300 mg/kg; Active; type: organism-based; design: dose 300 mg/kg; details: in vivo
# [11] = system: Mus musculus; assay: Anticonvulsant activity against subcutaneous administered Metrazol induced seizures (scMET) after 4 hr; Not active up to 300 mg/kg; type: functional, organism-based; design: dose 300 mg/kg
# [12] = Protective index was calculated (TD50/ED50) in scMET assay in mice after intraperitoneal administration; type: functional
# [13] = species on record: Mus musculus; assay: Time of peak effect was determined for activity in MES; type: functional; design: unit not given here
# [14] = system: Mus musculus; assay: The effective dose of compound was tested against subcutaneous administered Metrazol induced seizures after intraperitoneal administration; type: functional
# [15] = species on record: Mus musculus; assay: Time of peak effect was determined for toxicity; type: organism-based; design: unit not given here; details: in vivo
# [16] = system: Mus musculus; assay: Anticonvulsant activity against maximal electroshock induced seizures (MES) after 0.5 hr at 300 mg/kg; Active; type: functional, organism-based; design: dose 300 mg/kg
# [17] = Protective index was calculated (TD50/ED50) in MES assay in mice after intraperitoneal administration; type: functional
# [18] = system: Mus musculus; assay: Anticonvulsant activity against subcutaneous administered Metrazol induced seizures (scMET) after 0.5 hr at 100 mg/kg; Active; type: functional, organism-based; design: dose 100 mg/kg
# [19] = The cytotoxicity after intraperitoneal administration; type: organism-based; details: mouse, in vivo, ip
# [20] = system: Mus musculus; assay: The effective dose of compound was tested against maximal electroshock induced seizures after intraperitoneal administration; type: functional; details: ip
# [21] = system: Mus musculus; assay: The Neurologic toxicity by measuring rotarod test after 4 hr; No toxicity up to 300 mg/kg; type: organism-based; design: dose 300 mg/kg; details: in vivo
# [22] = species on record: Mus musculus; assay: Time of peak effect activity against maximal electroshock induced seizures; type: functional
# [23] = system: Mus musculus; assay: Anticonvulsant activity against subcutaneous administered Metrazol induced seizures (scMET) after 0.5 hr at 30 mg/kg; Active; type: functional, organism-based; design: dose 30 mg/kg
# [24] = species on record: Mus musculus; assay: Time of peak effect toxicity against maximal electroshock induced seizures; type: organism-based; details: in vivo
# [25] = system: Mus musculus; assay: as §2; type: functional, organism-based; design: dose 300 mg/kg
# [26] = system: Mus musculus; assay: as §1; type: functional, organism-based; design: dose 300 mg/kg
# [27] = Protective index was calculated (TD50/ED50) in MES assay in mice after intraperitoneal administration; […]; type: functional, organism-based
# [28] = system: Mus musculus; assay: Anticonvulsant activity against subcutaneous administered Metrazol induced seizures (scMET) after 4 hr at 100 mg/kg; Active; type: functional, organism-based; design: dose 100 mg/kg
# [29] = system: Mus musculus; assay: The effective dose of compound was tested against subcutaneous administered Metrazol induced seizures after intraperitoneal administration.; type: functional
SMILES,Activity [2],Activity [7],Activity [8],Toxicity [9],Toxicity [10],Activity [11],Ratio [12],TD50 [19] [mg/kg],further results
CN1C(=O)CCC(Cc2ccc(C(F)(F)F)cc2)C1=O (configuration not stated),inactive,,,,,,,,Activity [1]: Active; Activity [3]: Active; Toxicity [4]: Not Active; Toxicity [5]: Not Active; Activity [6]: Active
O=C1CCC(Cc2ccccc2Br)C(=O)N1 (configuration not stated),inactive,inactive,inactive,Active,Active,inactive,,,
CN1C(=O)CCC(Cc2ccc(Cl)cc2)C1=O (configuration not stated),,,inactive,Active,,inactive,2.81,348,TPE [13]: 0.5; ED50 [14]: 124 mg/kg; Toxicity [4]: Not Active; TPE [15]: 1; Activity [16]: Active; Ratio [17]: 1.4; Activity [18]: Active; ED50 [20]: 248 mg/kg
O=C1CCC(Cc2ccc(F)cc2)C(=O)N1 (configuration not stated),,,inactive,Active,,inactive,,,Activity [1]: Active; Toxicity [4]: Not Active
CC(C)Oc1ccc(CC2CCC(=O)NC2=O)cc1 (configuration not stated),inactive,inactive,inactive,Active,Active,inactive,,,
O=C1CCC(Cc2ccc(C(F)(F)F)cc2)C(=O)N1 (configuration not stated),,,,Active,Active,,2.92,349,TPE [13]: 2; Activity [3]: Active; ED50 [14]: 119 mg/kg; TPE [15]: 1; Activity [16]: Active; Ratio [17]: 2.76; Activity [6]: Active; Activity [18]: Active; ED50 [20]: 126 mg/kg
CCCOc1ccc(CC2CCC(=O)NC2=O)cc1 (configuration not stated),inactive,inactive,inactive,Active,Active,inactive,,,
O=C1CCC(Cc2ccc(Br)cc2)C(=O)N1 (configuration not stated),,,,Active,,,9.11,513,Toxicity [21]: No toxicity up to 300 mg/kg; Activity [3]: Active; ED50 [14]: 56.3 mg/kg; TPE [22]: 1; Activity [23]: Active; TPE [24]: 1; Activity [16]: Active; Ratio [17]: 1.84; Activity [6]: Active; ED50 [20]: 279 mg/kg
CN1C(=O)CCC(Cc2ccc([Si](C)(C)C)cc2)C1=O (configuration not stated),inactive,inactive,inactive,,,inactive,,,Toxicity [25]: inactive; Toxicity [26]: inactive
O=C1CCC(Cc2ccc(Cl)cc2Cl)C(=O)N1 (configuration not stated),inactive,,inactive,Active,Active,,4.29,687,Ratio [27]: inactive; Activity [1]: Active; TPE [13]: 1; TPE [15]: 0.5; Activity [28]: Active; ED50 [29]: 160 mg/kg
C[Si](C)(C)c1ccc(CC2CCC(=O)NC2=O)cc1 (configuration not stated),inactive,inactive,inactive,,,inactive,,,Toxicity [25]: inactive; Toxicity [26]: inactive
